Calls of active or inactive are those of the source. Rule as the data show it, for most assays here: actives have a measured Kd and inactives only a lower limit. Some results are limits rather than exact numbers.

Test [1] has as its target RAC-alpha serine/threonine-protein kinase (Homo sapiens, UniProt P31749).
In test [2] the target is Cyclin-dependent kinase 6 (Homo sapiens, UniProt Q00534).
The target of test [3] is Citron Rho-interacting kinase (Homo sapiens, UniProt O14578).
The target in test [4] is Dual specificity protein kinase CLK1 (Homo sapiens, UniProt P49759).
Test [5] has as its target T1, ATP-dependent RNA helicase DDX42 (Homo sapiens, UniProt Q86XP3).
T1 sequence (Q86XP3 whole entry): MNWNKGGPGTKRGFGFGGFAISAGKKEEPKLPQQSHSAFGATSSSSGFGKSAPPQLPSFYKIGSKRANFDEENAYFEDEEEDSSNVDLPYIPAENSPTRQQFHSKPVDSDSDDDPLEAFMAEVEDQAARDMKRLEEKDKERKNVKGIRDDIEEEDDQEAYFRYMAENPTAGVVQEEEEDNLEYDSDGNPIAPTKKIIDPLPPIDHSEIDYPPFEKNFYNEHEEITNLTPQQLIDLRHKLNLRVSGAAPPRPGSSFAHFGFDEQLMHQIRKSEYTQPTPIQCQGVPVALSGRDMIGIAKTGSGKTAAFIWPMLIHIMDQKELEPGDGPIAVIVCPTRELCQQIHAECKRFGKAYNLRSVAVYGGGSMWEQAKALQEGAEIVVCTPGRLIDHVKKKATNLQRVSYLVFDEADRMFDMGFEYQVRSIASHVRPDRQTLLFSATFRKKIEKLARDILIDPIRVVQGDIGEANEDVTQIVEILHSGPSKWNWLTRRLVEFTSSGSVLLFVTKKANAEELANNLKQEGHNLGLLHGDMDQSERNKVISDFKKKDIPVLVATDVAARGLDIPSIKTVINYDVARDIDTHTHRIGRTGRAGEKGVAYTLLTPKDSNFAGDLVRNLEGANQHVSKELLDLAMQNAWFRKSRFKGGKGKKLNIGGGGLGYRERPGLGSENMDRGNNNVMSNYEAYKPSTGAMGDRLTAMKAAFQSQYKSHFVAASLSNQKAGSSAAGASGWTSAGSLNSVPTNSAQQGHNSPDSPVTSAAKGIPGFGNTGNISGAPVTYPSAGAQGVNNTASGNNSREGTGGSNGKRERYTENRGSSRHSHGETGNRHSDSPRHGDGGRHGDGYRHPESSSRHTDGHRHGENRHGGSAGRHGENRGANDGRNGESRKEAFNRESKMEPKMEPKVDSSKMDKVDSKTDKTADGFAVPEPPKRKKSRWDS

In test [6] the target is Serine/threonine-protein kinase/endoribonuclease IRE1 (Homo sapiens, UniProt O75460).
The target in test [7] is Insulin-like growth factor 1 receptor (Homo sapiens, UniProt P08069).
The target in test [8] is Mitogen-activated protein kinase kinase kinase kinase 4 (Homo sapiens, UniProt O95819).
Test [9] concerns the target Serine/threonine-protein kinase 16 (Homo sapiens, UniProt O75716).
Test [10] concerns the target T2, Acyl-CoA dehydrogenase family member 11 (Homo sapiens, UniProt Q709F0).
T2 sequence (Q709F0 whole entry): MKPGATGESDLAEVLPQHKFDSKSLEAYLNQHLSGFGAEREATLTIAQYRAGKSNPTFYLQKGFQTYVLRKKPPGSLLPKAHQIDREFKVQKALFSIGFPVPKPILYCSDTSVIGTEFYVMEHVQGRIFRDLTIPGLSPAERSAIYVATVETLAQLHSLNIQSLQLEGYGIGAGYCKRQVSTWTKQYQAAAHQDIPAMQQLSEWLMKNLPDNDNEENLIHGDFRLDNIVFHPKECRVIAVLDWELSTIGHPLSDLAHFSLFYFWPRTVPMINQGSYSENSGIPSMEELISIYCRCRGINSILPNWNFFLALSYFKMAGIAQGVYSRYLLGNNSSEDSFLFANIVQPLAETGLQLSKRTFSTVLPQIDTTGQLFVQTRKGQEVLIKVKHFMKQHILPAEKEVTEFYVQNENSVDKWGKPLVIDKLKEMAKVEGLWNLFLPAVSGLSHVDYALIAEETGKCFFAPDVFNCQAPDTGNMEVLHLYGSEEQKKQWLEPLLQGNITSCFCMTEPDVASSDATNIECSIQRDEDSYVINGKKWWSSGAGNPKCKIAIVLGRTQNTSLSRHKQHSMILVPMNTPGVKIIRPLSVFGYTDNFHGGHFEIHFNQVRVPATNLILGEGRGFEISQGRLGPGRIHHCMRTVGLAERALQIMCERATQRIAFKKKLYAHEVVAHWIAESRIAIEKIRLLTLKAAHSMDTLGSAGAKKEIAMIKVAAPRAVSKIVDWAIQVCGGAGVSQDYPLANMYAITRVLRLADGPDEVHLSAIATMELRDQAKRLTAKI

Test [11] has as its target T3, Cysteine--tRNA ligase, cytoplasmic (Homo sapiens, UniProt P49589).
T3 sequence (P49589 whole entry): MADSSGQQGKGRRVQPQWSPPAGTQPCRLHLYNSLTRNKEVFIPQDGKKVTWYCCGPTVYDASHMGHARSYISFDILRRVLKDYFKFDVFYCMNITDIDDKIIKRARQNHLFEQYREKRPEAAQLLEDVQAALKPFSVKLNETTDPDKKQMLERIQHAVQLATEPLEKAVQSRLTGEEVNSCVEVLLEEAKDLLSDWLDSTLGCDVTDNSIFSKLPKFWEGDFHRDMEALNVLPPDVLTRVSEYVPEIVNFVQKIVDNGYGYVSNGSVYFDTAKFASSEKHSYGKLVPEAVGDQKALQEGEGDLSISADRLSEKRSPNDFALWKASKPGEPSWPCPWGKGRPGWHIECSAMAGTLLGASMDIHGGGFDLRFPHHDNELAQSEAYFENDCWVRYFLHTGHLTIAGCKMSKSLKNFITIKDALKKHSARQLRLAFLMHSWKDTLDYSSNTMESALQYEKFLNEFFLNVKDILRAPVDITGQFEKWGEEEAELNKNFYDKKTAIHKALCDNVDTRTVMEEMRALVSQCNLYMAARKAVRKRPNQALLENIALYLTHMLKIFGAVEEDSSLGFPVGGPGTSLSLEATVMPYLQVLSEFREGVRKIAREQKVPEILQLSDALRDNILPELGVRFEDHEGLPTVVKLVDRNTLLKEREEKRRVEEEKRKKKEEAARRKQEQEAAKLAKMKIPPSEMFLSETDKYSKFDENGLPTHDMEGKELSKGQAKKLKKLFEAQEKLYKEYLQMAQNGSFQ
Also: in the data inactive means no Kd found up to 30 µM.

Chain of RAC-alpha serine/threonine-protein kinase (P31749 whole entry): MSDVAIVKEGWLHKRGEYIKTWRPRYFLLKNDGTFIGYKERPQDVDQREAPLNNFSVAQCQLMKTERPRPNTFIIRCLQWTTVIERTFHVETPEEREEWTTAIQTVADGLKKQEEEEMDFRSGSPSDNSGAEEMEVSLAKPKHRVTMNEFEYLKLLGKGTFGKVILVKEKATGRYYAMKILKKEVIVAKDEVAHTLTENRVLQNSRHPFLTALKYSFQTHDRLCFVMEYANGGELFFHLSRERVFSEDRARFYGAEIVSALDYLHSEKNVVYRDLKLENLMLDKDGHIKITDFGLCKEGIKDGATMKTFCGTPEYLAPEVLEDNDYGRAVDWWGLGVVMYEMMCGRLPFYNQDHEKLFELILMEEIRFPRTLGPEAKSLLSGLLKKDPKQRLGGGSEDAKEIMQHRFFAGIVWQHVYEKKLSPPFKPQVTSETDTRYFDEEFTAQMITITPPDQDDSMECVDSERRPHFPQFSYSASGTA
Chain of Dual specificity protein kinase CLK1 (P49759 whole entry): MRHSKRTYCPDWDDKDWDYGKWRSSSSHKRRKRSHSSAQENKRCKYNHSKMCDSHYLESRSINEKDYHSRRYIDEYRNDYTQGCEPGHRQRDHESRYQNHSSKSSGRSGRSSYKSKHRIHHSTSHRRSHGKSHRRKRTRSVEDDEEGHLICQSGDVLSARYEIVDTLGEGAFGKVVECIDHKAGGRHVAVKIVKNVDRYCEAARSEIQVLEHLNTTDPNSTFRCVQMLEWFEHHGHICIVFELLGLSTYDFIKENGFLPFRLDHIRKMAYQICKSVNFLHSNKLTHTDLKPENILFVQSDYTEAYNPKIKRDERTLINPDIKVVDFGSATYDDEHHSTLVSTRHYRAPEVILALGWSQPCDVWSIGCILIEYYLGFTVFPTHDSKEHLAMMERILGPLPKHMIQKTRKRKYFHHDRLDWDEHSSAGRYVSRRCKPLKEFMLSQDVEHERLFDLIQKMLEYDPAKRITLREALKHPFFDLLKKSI
Chain of Serine/threonine-protein kinase/endoribonuclease IRE1 (O75460 whole entry): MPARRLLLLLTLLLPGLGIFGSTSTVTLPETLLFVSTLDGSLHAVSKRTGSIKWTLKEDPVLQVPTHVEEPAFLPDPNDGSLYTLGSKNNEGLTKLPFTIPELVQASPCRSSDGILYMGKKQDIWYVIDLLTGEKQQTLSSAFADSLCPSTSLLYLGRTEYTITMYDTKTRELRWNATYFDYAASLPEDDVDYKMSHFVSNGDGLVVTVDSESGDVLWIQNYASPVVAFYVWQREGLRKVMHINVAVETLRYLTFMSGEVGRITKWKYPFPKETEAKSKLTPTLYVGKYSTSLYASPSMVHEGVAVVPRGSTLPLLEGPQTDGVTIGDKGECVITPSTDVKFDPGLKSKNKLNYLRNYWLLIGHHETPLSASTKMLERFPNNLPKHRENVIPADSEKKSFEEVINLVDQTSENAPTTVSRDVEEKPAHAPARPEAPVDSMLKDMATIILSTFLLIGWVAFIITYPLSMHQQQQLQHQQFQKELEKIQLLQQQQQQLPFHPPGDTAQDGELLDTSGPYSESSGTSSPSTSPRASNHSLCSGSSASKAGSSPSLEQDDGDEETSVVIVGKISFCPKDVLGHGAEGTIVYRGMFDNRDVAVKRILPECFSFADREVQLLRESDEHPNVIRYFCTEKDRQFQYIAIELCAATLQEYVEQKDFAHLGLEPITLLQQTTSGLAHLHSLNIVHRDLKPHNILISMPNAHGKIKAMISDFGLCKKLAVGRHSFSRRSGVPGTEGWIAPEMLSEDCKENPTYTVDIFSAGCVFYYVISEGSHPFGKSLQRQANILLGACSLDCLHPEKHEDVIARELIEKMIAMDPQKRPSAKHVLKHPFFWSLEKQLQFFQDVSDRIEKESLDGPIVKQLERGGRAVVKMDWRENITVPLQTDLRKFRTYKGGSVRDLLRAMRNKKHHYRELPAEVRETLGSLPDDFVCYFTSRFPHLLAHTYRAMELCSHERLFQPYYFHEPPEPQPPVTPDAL
Chain of Cyclin-dependent kinase 6 (Q00534 whole entry): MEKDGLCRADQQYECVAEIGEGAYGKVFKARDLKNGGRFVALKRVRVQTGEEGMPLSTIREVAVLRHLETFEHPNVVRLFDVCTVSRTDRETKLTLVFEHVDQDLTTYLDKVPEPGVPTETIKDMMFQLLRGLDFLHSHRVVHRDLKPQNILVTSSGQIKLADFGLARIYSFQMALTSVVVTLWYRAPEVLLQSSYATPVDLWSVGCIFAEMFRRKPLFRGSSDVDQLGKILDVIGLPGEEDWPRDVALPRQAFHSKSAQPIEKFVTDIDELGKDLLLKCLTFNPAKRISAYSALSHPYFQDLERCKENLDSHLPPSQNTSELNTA
Chain of Citron Rho-interacting kinase (O14578 whole entry): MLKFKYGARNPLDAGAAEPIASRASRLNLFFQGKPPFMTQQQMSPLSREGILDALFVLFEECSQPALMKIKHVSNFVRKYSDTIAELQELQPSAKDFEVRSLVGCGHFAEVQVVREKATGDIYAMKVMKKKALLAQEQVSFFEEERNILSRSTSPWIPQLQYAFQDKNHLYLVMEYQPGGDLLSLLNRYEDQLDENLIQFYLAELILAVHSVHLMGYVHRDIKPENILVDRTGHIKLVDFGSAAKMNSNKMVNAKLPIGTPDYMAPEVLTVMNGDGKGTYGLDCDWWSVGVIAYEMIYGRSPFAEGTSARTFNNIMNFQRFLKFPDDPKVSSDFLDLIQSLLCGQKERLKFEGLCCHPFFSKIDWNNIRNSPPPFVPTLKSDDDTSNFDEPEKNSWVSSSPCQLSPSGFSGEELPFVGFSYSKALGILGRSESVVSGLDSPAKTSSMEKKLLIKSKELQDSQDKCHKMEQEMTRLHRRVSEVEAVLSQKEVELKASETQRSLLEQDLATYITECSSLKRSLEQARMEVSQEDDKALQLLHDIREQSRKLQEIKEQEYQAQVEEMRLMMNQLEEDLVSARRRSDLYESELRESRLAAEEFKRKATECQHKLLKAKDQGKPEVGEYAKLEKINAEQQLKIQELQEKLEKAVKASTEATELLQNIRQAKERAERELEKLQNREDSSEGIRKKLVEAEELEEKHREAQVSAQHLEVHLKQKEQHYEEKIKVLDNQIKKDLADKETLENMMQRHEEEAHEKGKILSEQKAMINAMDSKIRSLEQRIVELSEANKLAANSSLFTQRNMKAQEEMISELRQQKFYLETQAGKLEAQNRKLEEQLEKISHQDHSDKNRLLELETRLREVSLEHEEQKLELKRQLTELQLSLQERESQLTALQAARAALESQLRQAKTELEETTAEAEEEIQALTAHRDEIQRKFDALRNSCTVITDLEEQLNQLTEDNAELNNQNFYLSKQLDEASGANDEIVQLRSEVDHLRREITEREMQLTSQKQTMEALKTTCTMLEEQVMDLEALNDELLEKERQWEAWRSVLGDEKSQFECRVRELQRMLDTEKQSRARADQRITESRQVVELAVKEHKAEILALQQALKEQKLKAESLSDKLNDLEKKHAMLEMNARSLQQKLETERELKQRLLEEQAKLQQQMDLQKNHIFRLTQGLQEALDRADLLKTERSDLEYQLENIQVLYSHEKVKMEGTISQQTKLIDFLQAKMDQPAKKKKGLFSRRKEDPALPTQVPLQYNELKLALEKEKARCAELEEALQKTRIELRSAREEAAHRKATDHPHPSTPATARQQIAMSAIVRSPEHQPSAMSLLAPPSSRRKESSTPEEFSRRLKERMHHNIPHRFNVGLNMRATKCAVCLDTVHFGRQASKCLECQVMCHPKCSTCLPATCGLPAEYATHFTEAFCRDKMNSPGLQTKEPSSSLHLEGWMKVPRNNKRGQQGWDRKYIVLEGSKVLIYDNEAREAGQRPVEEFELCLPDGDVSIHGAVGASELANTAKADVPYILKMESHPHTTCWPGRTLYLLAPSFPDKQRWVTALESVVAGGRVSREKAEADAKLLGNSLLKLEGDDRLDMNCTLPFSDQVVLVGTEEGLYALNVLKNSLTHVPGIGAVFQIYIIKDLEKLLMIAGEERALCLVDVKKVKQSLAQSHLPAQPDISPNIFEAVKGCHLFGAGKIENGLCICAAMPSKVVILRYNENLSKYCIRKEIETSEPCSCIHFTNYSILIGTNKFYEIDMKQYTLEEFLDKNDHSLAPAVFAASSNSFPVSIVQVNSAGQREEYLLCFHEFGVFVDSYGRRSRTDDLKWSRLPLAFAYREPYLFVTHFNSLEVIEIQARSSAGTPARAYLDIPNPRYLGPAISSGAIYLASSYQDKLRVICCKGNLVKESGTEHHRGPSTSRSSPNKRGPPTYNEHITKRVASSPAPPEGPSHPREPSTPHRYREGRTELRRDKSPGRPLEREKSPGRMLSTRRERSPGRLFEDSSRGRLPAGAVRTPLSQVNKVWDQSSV
Chain of Serine/threonine-protein kinase 16 (O75716 whole entry): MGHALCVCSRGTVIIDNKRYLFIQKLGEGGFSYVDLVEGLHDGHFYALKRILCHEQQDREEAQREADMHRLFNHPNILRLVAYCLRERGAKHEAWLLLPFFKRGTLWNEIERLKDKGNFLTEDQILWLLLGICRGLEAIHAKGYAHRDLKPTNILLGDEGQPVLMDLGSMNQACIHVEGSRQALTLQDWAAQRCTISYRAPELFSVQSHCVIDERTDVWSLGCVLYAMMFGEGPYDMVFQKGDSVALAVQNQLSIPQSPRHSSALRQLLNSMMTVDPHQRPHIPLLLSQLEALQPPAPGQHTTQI

With `CNC(=O)c1cc(COc2nnc(Nc3ccc(Cl)cc3)c3ccoc23)ccn1` [TELATINIB], the Kd in test [1], in test [2], in [3], in [4], in test [5] and in [6] was > 30 µM (inactive) each time. The Kd in test [7], in test [8] and in test [9] was > 30 µM (inactive) in each case.
As for `CNC(=O)c1ccc(Nc2ncc(C(F)(F)F)c(NCc3nccnc3N(C)S(C)(=O)=O)n2)cc1` [DEFACTINIB], the Kd in test [10], in [1], in test [11], in test [3], in [4] and in test [5] was > 30 µM (inactive) in each case. The Kd in test [6], in test [7] and in [8] was > 30 µM (inactive) throughout.
`c1cc(OCCN2CCCCC2)cc(-c2n[nH]c3ccc(-c4nc[nH]n4)cc23)c1` [CC-401]: the Kd in test [10], in test [1], in test [11], in [2], in test [3] and in test [4] was > 30 µM (inactive) in each case. Besides, the Kd in test [6] is > 30 µM (inactive); in [7], > 30 µM (inactive); in test [8] it was 4.17 µM (active); in [9], > 30 µM (inactive).
With `CCN1CCN(Cc2ccc(Nc3ncc(F)c(-c4cc(F)c5nc(C)n(C(C)C)c5c4)n3)nc2)CC1` [ABEMACICLIB], the Kd in [10] is > 30 µM (inactive); in test [1], > 30 µM (inactive); in test [3] it was 0.798 µM (active); in test [4] it was 0.007 µM (active); in test [5] it was > 30 µM (inactive); in test [6] it was > 30 µM (inactive). Moreover, the Kd in test [7] was > 30 µM (inactive); in [8], 1.32 µM (active); in [9] it was 0.495 µM (active).
For `C=CC(=O)Nc1cccc(Nc2nc(Nc3ccc(N4CCN(C(C)=O)CC4)cc3OC)ncc2C(F)(F)F)c1` [ROCILETINIB], the Kd was > 30 µM (inactive) in test [10]; > 30 µM (inactive) in test [1]; > 30 µM (inactive) in [2]; > 30 µM (inactive) in test [3]; 0.651 µM (active) in test [4]; > 30 µM (inactive) in [5]. Further, the Kd in test [6], in test [7], in test [8] and in test [9] was > 30 µM (inactive) in each case.
`O=c1[nH]c([C@@H]2CCCN2)nc2c1oc1ccc(Cl)cc12`: the Kd in [1] was > 30 µM (inactive); in test [2] it was > 30 µM (inactive); in test [3], 3.66 µM (active); in test [5], > 30 µM (inactive); in [6], > 30 µM (inactive); in test [7], > 30 µM (inactive). Moreover, the Kd in test [8] and in [9] was > 30 µM (inactive) in each case.
As to `Cc1c(Cn2c(C)nc3c(C(=O)O)cc(N4CCOCC4)cc32)cccc1C(F)(F)F` [GSK-2636771], the Kd in test [10], in test [1], in test [11], in [2], in test [3] and in test [4] was > 30 µM (inactive) throughout. The Kd in [6], in [7], in [8] and in test [9] was > 30 µM (inactive) throughout.
For `Cn1c(=O)c(F)c(Nc2ccc(I)cc2F)c2c(=O)n(C[C@@H](O)CO)cnc21` [TAK-733], the Kd in test [10], in [1], in test [2], in test [3], in test [4] and in test [5] was > 30 µM (inactive) in each case. Also, the Kd in test [6], in [7], in [8] and in test [9] was > 30 µM (inactive) throughout.
On to `COc1cccc(Nc2ncnn3ccc(CN4CC[C@@H](N)[C@H](O)C4)c23)c1` [BMS-690514], for which the Kd in [10], in test [1], in test [2], in test [4], in [5] and in [6] was > 30 µM (inactive) each time. Moreover, the Kd in test [7], in test [8] and in test [9] was > 30 µM (inactive) each time.
For `Cc1c(NC(=O)OC[C@@H]2COCCN2)cn2ncnc(Nc3ccc4c(cnn4Cc4cccc(F)c4)c3)c12` [AC-480], the Kd in [10], in test [1], in test [2], in [3], in test [4] and in test [5] was > 30 µM (inactive) in each case. For the same molecule, the Kd in test [6], in [7], in test [8] and in [9] was > 30 µM (inactive) each time.
On to `NC[C@@](O)(c1ccc(Cl)cc1)c1ccc(-c2cn[nH]c2)cc1` [AT-13148], for which the Kd in [10], in test [1], in [11], in test [2], in test [3] and in test [5] was > 30 µM (inactive) throughout. Moreover, the Kd in test [6], in test [7], in [8] and in test [9] was > 30 µM (inactive) each time.

The Kd is the concentration at which binding is half-saturated.
